Measured values: EP2710378B1, “METHOD TO PROGNOSE VIRAL INFECTION BY MEASURING T CELL RESPONSE OR AUTO-ANTIBODIES TO APOPTOTIC EPITOPES” (Università degli Studi di Roma "La Sapienza", priority 2011, dated 2012)

Test system: CD8+pentamer+ TEM cells
Test: Cross-presentation of apoptotic cells
Format: cell-based, patients with acute HCV infection
Details: DCs pulsed with apoptotic T cells previously treated with the inhibitor; five independent patients
Procedure: […]. Then, cells were induced to apoptosis by incubation with 500 ng/ml anti-Fas (anti-CD95 mAb [clone CH11], Upstate Biotechnology) for at least 6 h. Apoptotic cells were determined by staining with Annexin- V (ApoAlert Apoptosis Kit, Clontech Laboratories Inc), PI (Sigma-Aldrich) and flow-cytometry analysis. PBMCs were double-stained with pentamers and mAb to CD8 and cultured with iDCs that had been pulsed or not with apoptotic cloned T cells. After 6-8 h, cells were tested for their capacity to produce IL-17 and IFN-γ by intracellular cytokine staining (ICS) as described above. Cells were washed, acquired with a FACSCanto flow cytometer and analyzed with FACSDiva analysis software (Becton Dickinson) or FlowJo software (Treestar).
It is for interest the finding that fresh apoptotic epitope-specific CD8^+pentamer^+ TEM cells promptly produced IFN-γ or IL-17 ex vivo within a few hours of contact with DCs that had been pulsed with apoptotic T cells (i.e., through the cross-presentation mechanism) (Figure 25A,B). […] This phenomenon was confirmed in five independent patients (Figure 25B). The frequencies of apoptotic epitope-specific CD8^+ T cells (but not those of viral epitope-specific CD8^+ T cells [data not shown]) correlated with the number of circulating apoptotic T cells (Figure 25C). […]

COC(=O)CC[C@H](NC(=O)[C@H](CC(=O)OC)NC(=O)OCc1ccccc1)C(=O)N[C@H](C(=O)N[C@@H](CC(=O)OC)C(=O)CF)C(C)C [C3I, Z-DEVD-FMK]
IFN-γ or IL-17 production: marked decrease
